This test has as its system BDF1 mice, s.c. Lewis lung carcinoma, T/C %. Kind of test: NCI In Vivo Anticancer Drug Screen. Data for tumor model Lewis Lung Carcinoma (subcutaneous) in B6D2F1 (BDF1) mice. The essentials: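 Transplanted tumors grown in mice; compound vs vehicle dosing; endpoint survival or tumor size; ratio T/C.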
The mark [1] stands for this setting: endpoint: median survival time, dose: 3.12 mg/kg/injection, schedule: Q01DX009 (ip), vehicle: Klucel (hydroxypropylcellulose) (HPC), higher = longer survival.
Where [2] appears, read: endpoint: median survival time, dose: 6.25 mg/kg/injection, schedule: Q01DX009 (ip), vehicle: Klucel (hydroxypropylcellulose) (HPC), higher = longer survival.
The mark [3] stands for this setting: endpoint: median survival time, dose: 12.5 mg/kg/injection, schedule: Q01DX009 (ip), vehicle: Klucel (hydroxypropylcellulose) (HPC), higher = longer survival.
Where [4] appears, read: endpoint: median survival time, dose: 25.0 mg/kg/injection, schedule: Q01DX009 (ip), vehicle: Klucel (hydroxypropylcellulose) (HPC), higher = longer survival.
[5] abbreviates: endpoint: median survival time, dose: 50.0 mg/kg/injection, schedule: Q01DX009 (ip), vehicle: Klucel (hydroxypropylcellulose) (HPC), higher = longer survival.
The mark [6] stands for this setting: endpoint: median survival time, dose: 100.0 mg/kg/injection, schedule: Q01DX009 (ip), vehicle: Klucel (hydroxypropylcellulose) (HPC), higher = longer survival.
Setting [7] is: endpoint: mean tumor weight, dose: 100.0 mg/kg/injection, schedule: Q01DX011 (ip), vehicle: carboxymethylcellulose (CMC), higher = larger tumour.
[8] abbreviates: endpoint: mean tumor weight, dose: 25.0 mg/kg/injection, schedule: Q01DX011 (ip), vehicle: saline, higher = larger tumour.
Setting [9] is: endpoint: mean tumor weight, dose: 50.0 mg/kg/injection, schedule: Q01DX011 (ip), vehicle: saline, higher = larger tumour.
Where [10] appears, read: endpoint: mean tumor weight, dose: 12.5 mg/kg/injection, schedule: Q01DX011 (ip), vehicle: carboxymethylcellulose (CMC), higher = larger tumour.
Setting [11] is: endpoint: mean tumor weight, dose: 25.0 mg/kg/injection, schedule: Q01DX011 (ip), vehicle: carboxymethylcellulose (CMC), higher = larger tumour.
The mark [12] stands for this setting: endpoint: mean tumor weight, dose: 50.0 mg/kg/injection, schedule: Q01DX011 (ip), vehicle: carboxymethylcellulose (CMC), higher = larger tumour.

Where “and” joins values, the source holds several entries; their conditions need not be identical. Identical values can stand only once. Records with an inconclusive call do not appear.

Consider `CCOC(=O)C1C(=O)C(CN(CCCl)CCCl)C(=O)C(C(=O)OCC)C1c1ccc(O)cc1` (configuration not stated), for which the T/C under setting [1] is 94 % of control, the T/C under setting [2] is 98 % of control, the T/C under setting [3] was 100 % of control and the T/C under setting [4] was 94 % of control.
Turning to `COC1OC(CNC(=O)N(C)N=O)C(O)C(O)C1O` (configuration not stated), the T/C is, setting by setting: (endpoint: median survival time, dose: 50.0 mg/kg/injection, schedule: Q01DX009 (ip), vehicle: saline, higher = longer survival) 102 % of control; (endpoint: median survival time, dose: 100.0 mg/kg/injection, schedule: Q01DX009 (ip), vehicle: saline, higher = longer survival) 112 % of control; (endpoint: median survival time, dose: 200.0 mg/kg/injection, schedule: Q01DX009 (ip), vehicle: saline, higher = longer survival) 97 % of control.
`CCOP(=O)(CC(=O)NC(CC(=O)OC)C(=O)OC)OCC` (configuration not stated): the T/C is 110 % of control (endpoint: median survival time, dose: 50.0 mg/kg/injection, schedule: Q01DX004 (ip), vehicle: saline, higher = longer survival); 120 % of control (endpoint: median survival time, dose: 100.0 mg/kg/injection, schedule: Q01DX004 (ip), vehicle: saline, higher = longer survival); 116 % of control (endpoint: median survival time, dose: 200.0 mg/kg/injection, schedule: Q01DX004 (ip), vehicle: saline, higher = longer survival); 124 % of control (endpoint: median survival time, dose: 800.0 mg/kg/injection, schedule: Q01DX004 (ip), vehicle: saline, higher = longer survival); 124 % of control (endpoint: median survival time, dose: 1600.0 mg/kg/injection, schedule: Q01DX004 (ip), vehicle: saline, higher = longer survival).
As for `C[C@]12C=CC(=O)C=C1CC[C@@H]1[C@@H]2CC[C@]2(C)OC(=O)CC[C@@H]12`, the T/C runs as follows: (endpoint: mean tumor weight, dose: 12.5 mg/kg/injection, schedule: Q01DX011 (sc), vehicle: steriod suspending solution, higher = larger tumour) 75 % of control; (endpoint: mean tumor weight, dose: 25.0 mg/kg/injection, schedule: Q01DX011 (sc), vehicle: steriod suspending solution, higher = larger tumour) 102 % of control; (endpoint: mean tumor weight, dose: 50.0 mg/kg/injection, schedule: Q01DX011 (sc), vehicle: steriod suspending solution, higher = larger tumour) 53 % of control; (endpoint: mean tumor weight, dose: 100.0 mg/kg/injection, schedule: Q01DX011 (sc), vehicle: steriod suspending solution, higher = larger tumour) 97 % of control.
For `O=[N+]([O-])c1ccc(Cl)c2c([N+](=O)[O-])cccc12`, the T/C is, setting by setting: under setting [2], 118 % of control; under setting [3], 114 % of control; under setting [5], 103 % of control; under setting [6], 111 % of control.
With `C=C(C)[C@@H]1CC[C@]2(CO)CC[C@]3(C)[C@H](CC[C@@H]4[C@@]5(C)CC[C@H](O)C(C)(C)[C@@H]5CC[C@]43C)[C@@H]12`, the T/C by setting is: under setting [7], 101 % of control; (endpoint: mean tumor weight, dose: 200.0 mg/kg/injection, schedule: Q01DX011 (ip), vehicle: carboxymethylcellulose (CMC), higher = larger tumour) 68 % of control.
For the compound `O=c1c(O)c(-c2ccc(O)c(O)c2)oc2cc(O)ccc12`, the T/C runs as follows: (endpoint: mean tumor weight, dose: 12.5 mg/kg/injection, schedule: Q01DX011 (ip), vehicle: saline, higher = larger tumour) 99 % of control; under setting [8], 95 % of control; under setting [9], 91 % of control.
With `CN(CCC(=O)c1ccccc1)CCC(=O)c1ccccc1`, the T/C reads like this: (endpoint: mean tumor weight, dose: 55.0 mg/kg/injection, schedule: Q01DX011 (ip), vehicle: other, higher = larger tumour) 91 % of control; (endpoint: mean tumor weight, dose: 83.0 mg/kg/injection, schedule: Q01DX011 (ip), vehicle: other, higher = larger tumour) 122 % of control.
In the case of `CCCCOP(=S)(N1CC1)N1CC1`, the T/C (endpoint: mean tumor weight, dose: 2.5 mg/kg/injection, schedule: Q01DX011 (ip), vehicle: saline, higher = larger tumour) was 79 % of control; the T/C (endpoint: mean tumor weight, dose: 5.0 mg/kg/injection, schedule: Q01DX011 (ip), vehicle: saline, higher = larger tumour) is 52 % of control; the T/C (endpoint: mean tumor weight, dose: 10.0 mg/kg/injection, schedule: Q01DX011 (ip), vehicle: saline, higher = larger tumour) is 23 % of control.
In the case of `CC(=O)C(O)N1C(=O)C=CC1=O` (configuration not stated), the T/C runs as follows: (endpoint: median survival time, dose: 0.31 mg/kg/injection, schedule: Q01DX009 (ip), vehicle: saline, higher = longer survival) 100 % of control; (endpoint: median survival time, dose: 0.62 mg/kg/injection, schedule: Q01DX009 (ip), vehicle: saline, higher = longer survival) 98 % of control and 105 % of control and 119 % of control; (endpoint: median survival time, dose: 1.25 mg/kg/injection, schedule: Q01DX009 (ip), vehicle: saline, higher = longer survival) 107 % of control (2×) and 120 % of control; (endpoint: median survival time, dose: 1.25 mg/kg/injection, schedule: Q02DX009 (ip), vehicle: saline, higher = longer survival) 114 % of control; (endpoint: median survival time, dose: 2.5 mg/kg/injection, schedule: Q01DX009 (ip), vehicle: saline, higher = longer survival) 90 % of control and 107 % of control; (endpoint: median survival time, dose: 2.5 mg/kg/injection, schedule: Q02DX009 (ip), vehicle: saline, higher = longer survival) 104 % of control. In addition, the T/C by setting is: (endpoint: median survival time, dose: 5.0 mg/kg/injection, schedule: Q01DX009 (ip), vehicle: saline, higher = longer survival) 97 % of control and 100 % of control and 120 % of control; (endpoint: median survival time, dose: 5.0 mg/kg/injection, schedule: Q02DX009 (ip), vehicle: saline, higher = longer survival) 105 % of control.
As for `N#Cc1ncc(C(Cl)Cl)nc1Cl`, the T/C (endpoint: median survival time, dose: 25.0 mg/kg/injection, schedule: Q01DX009 (ip), vehicle: saline with Tween-80, higher = longer survival) is 113 % of control and the T/C (endpoint: median survival time, dose: 50.0 mg/kg/injection, schedule: Q01DX009 (ip), vehicle: saline with Tween-80, higher = longer survival) was 98 % of control.
Take `COc1cc(NS(C)(=O)=O)ccc1Nc1c2ccccc2nc2ccccc12`: the T/C is, setting by setting: (endpoint: median survival time, dose: 0.13 mg/kg/injection, schedule: Q01DX009 (ip), vehicle: other, higher = longer survival) 117 % of control; (endpoint: median survival time, dose: 0.5 mg/kg/injection, schedule: Q01DX009 (ip), vehicle: other, higher = longer survival) 118 % of control; (endpoint: median survival time, dose: 0.78 mg/kg/injection, schedule: Q01DX009 (ip), vehicle: saline, higher = longer survival) 96 % of control; (endpoint: median survival time, dose: 1.25 mg/kg/injection, schedule: Q01DX011 (ip), vehicle: Klucel (hydroxypropylcellulose) (HPC), higher = longer survival) 91 % of control; (endpoint: median survival time, dose: 1.56 mg/kg/injection, schedule: Q01DX009 (ip), vehicle: saline, higher = longer survival) 100 % of control; (endpoint: median survival time, dose: 2.5 mg/kg/injection, schedule: Q01DX011 (ip), vehicle: Klucel (hydroxypropylcellulose) (HPC), higher = longer survival) 96 % of control. The T/C is 118 % of control under setting [1]; 103 % of control and 107 % of control (endpoint: median survival time, dose: 3.13 mg/kg/injection, schedule: Q01DX009 (ip), vehicle: saline, higher = longer survival); 115 % of control under setting [2]; 214 % of control under setting [3]; 88 % of control (endpoint: median tumor weight (est.), dose: 1.25 mg/kg/injection, schedule: Q01DX011 (ip), vehicle: Klucel (hydroxypropylcellulose) (HPC), higher = larger tumour); 110 % of control (endpoint: median tumor weight (est.), dose: 2.5 mg/kg/injection, schedule: Q01DX011 (ip), vehicle: Klucel (hydroxypropylcellulose) (HPC), higher = larger tumour). The T/C (endpoint: median tumor weight (est.), dose: 5.0 mg/kg/injection, schedule: Q01DX011 (ip), vehicle: Klucel (hydroxypropylcellulose) (HPC), higher = larger tumour) was 504 % of control.
Turning to `O=C1C(=O)c2ccccc2C(O)=C1CC=C(Cl)Cl`, the T/C is 88 % of control under setting [10]; 76 % of control under setting [11]; 90 % of control under setting [12]; 84 % of control (endpoint: mean tumor weight, dose: 50.0 mg/kg/injection, schedule: Q01DX011 (oral), vehicle: carboxymethylcellulose (CMC), higher = larger tumour); 89 % of control and 100 % of control and 106 % of control under setting [3]; 86 % of control and 94 % of control and 110 % of control under setting [4]. Moreover, the T/C runs as follows: (endpoint: median survival time, dose: 34.0 mg/kg/injection, schedule: Q01DX009 (ip), vehicle: water, higher = longer survival) 113 % of control; under setting [5], 103 % of control and 110 % of control; (endpoint: median survival time, dose: 50.0 mg/kg/injection, schedule: Q01DX009 (ip), vehicle: water, higher = longer survival) 110 % of control; under setting [6], 117 % of control; (endpoint: median tumor weight (est.), dose: 12.5 mg/kg/injection, schedule: Q01DX009 (ip), vehicle: Klucel (hydroxypropylcellulose) (HPC), higher = larger tumour) 93 % of control and 99 % of control; (endpoint: median tumor weight (est.), dose: 25.0 mg/kg/injection, schedule: Q01DX009 (ip), vehicle: Klucel (hydroxypropylcellulose) (HPC), higher = larger tumour) 78 % of control and 86 % of control. The T/C by setting is: (endpoint: median tumor weight (est.), dose: 50.0 mg/kg/injection, schedule: Q01DX009 (ip), vehicle: Klucel (hydroxypropylcellulose) (HPC), higher = larger tumour) 87 % of control; (endpoint: median tumor weight (est.), dose: 100.0 mg/kg/injection, schedule: Q01DX009 (ip), vehicle: Klucel (hydroxypropylcellulose) (HPC), higher = larger tumour) 70 % of control.
Consider `c1ccc2ncccc2c1`, for which the T/C under setting [8] is 81 % of control and the T/C under setting [9] is 49 % of control.
Turning to `CNCc1ccccc1`, the T/C runs as follows: under setting [11], 105 % of control; under setting [12], 124 % of control; under setting [7], 65 % of control.
On to `O=c1[nH]cc(N(CCCl)CCCl)c(=O)[nH]1`, for which the T/C is 70 % of control (endpoint: mean tumor weight, dose: 0.37 mg/kg/injection, schedule: Q01DX011 (ip), vehicle: carboxymethylcellulose (CMC), higher = larger tumour); 59 % of control (endpoint: mean tumor weight, dose: 0.57 mg/kg/injection, schedule: Q01DX011 (ip), vehicle: carboxymethylcellulose (CMC), higher = larger tumour); 38 % of control (endpoint: mean tumor weight, dose: 0.85 mg/kg/injection, schedule: Q01DX011 (ip), vehicle: carboxymethylcellulose (CMC), higher = larger tumour).
For `CS(=O)(=O)OCCCCCCCCCOS(C)(=O)=O`, the T/C is, setting by setting: under setting [10], 104 % of control and 105 % of control; under setting [11], 68 % of control and 84 % of control.

The record behind these values is PubChem BioAssay AID270 (DTP/NCI, 2004).
